The results in this text go back to patent publication US11639343B2, “Compounds targeting and degrading BCR-ABL protein and its antitumor application” (ShanghaiTech University, priority 2019, dated 2023).

The term IC50 denotes the concentration that gives 50% inhibition. For orientation: DC50 means the concentration at which degradation of the target reaches its halfway point.

One data set has as its system K562 (BCR-ABL+) cells. In words: CCK-8 proliferation inhibition, K562 cells.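 Further: Ten-point threefold dilution series starting at 10 µM, absorbance at 450 nm after 2 h with CCK-8, DMSO as negative control.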 The data set is classed as cell-based, human. The following applies: Homo sapiens, K562, 48 h, CCK-8, 48 hours of drug treatment; read-out: Proliferative inhibitory activity (IC50, nM) K562 (BCR-ABL+).
The next data set concerns U937 (BCR-ABL-) cells. In words: CCK-8 proliferation inhibition, U937 cells.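 Further: Ten-point threefold dilution series, absorbance at 450 nm after 2 h with CCK-8 reagent, DMSO as negative control.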 The data set is classed as cell-based, human. The following applies: Homo sapiens, U-937; CCK-8, 48 hours of drug treatment, highest concentration 10 μM; read-out: Proliferative inhibitory activity (IC50, nM) U937 (BCR-ABL-).
The subject of data set [1] is BCR-ABL-G250E/V299L/F317L/F317V. The experiment in a line: Western blot degradation of BCR-ABL drug resistance mutants in U937 cells. The data set is classed as cell-based, human. The following applies: U937 cells stably expressing mutants, 24 hours, 10 nM-10 μM. As for the experimental part: (1) Establishment of stable BCR-ABL mutant: the target fragment of BCR-ABL was cloned into retroviral vector pmigrl, and then PMIGR1-BCR-ABL-G250E/E255K/V299L/F317L/F317V/T315I/T315A and other mutant forms were obtained by using Stratagene-QuikChange® Site-Directed Mutagenesis Kit. Finally, the cell lines stably expressing BCR-ABL wild type and mutant were established on U937 cells by retrovirus infection system.
(1) Cell seed: Established cells are added to the 24 well plates, with a cell density of 3×10^5/ml and a total volume of 1.5 ml; Four concentration gradients, 10 nm, 100 nm, 1 μM, and 10 μM, are respectively set for PROTAD series compounds. […] After 24 hours of drug treatment, the cells were collected in 1.5 ml ep tube, centrifuged at 3000 rpm for 3 minutes, and then added 30 μL PBS and 30 μL 2×SDS to cell precipitated, lysate Heat at 100° C. for 5 minutes, then placed on ice for 5 minutes, centrifuged at 10000 rpm for 5 minutes, and take the supernatant as the total protein extracted. The effect of SIAS151178 on the mutational BCR-ABL protein was detected by Western blotting.

In data set [2] the test system is K562 cell transplantation tumor. The experiment in a line: BCR-ABL+ K562 cell transplanted tumor model in mice. The data set is classed as in vivo. The source says: (1) Establishment of K562 Luc cells: the target fragment of luciferase was cloned into lentivirus vector Plenti-IRES-ZSGREEN, and a K562-Luc cell line stably expressing luciferase was established on K562 cells by using lentivirus infection system.
(§1) (2) BCR-ABL+K562 cell transplanted mouse model: 5*106 k562 Luc cells were inoculated into the subcutaneous of immunodeficient NOD-SCID mice. After 2 weeks, the tumor volume of mice was nearly 200 mm^3. The mice were randomly divided into 5 groups. […] At the same time, the mice were imaged in vivo to observe the tumor-bearing condition. Then stop the administration and observe the recurrence of the tumor.

Data set [3] can be described thus: Body weight and toxicity in the K562 transplanted mouse model. The data set is classed as in vivo. Particulars: NOD-SCID mice, during the experiment period.
Description: as §1

A further data set deals with BCR-ABL signal pathway. In words: BCR-ABL signal pathway activity in vivo. The source says: (§2) We further study whether PROTAD compound of the disclosure can induce BCR-ABL protein degradation in vivo. We still took the compound SIAIS151178 of Dasa-Lin-VHL system as the representative one.
Data set [4] relates to Src protein kinase, kit, PDGFR. The experiment in a line: Degradation of other tyrosine kinase receptors.
Data set [5] addresses T1, c-ABL protein (Homo sapiens, UniProt P00519). The experiment in a line: Degradation of c-ABL protein in vivo. On the set-up: from tissue; host or cells: in vivo.
Description: as §2

A further data set relates to HEK293 (BCR-ABL-) cells. In words: CCK-8 proliferation inhibition, HEK293 cells.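 Further: Ten-point threefold dilution series starting at 10 µM, CCK-8 absorbance at 450 nm read after 2 h reagent incubation, DMSO-treated cells as negative control.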 The following applies: Homo sapiens, HEK293, 48 h, read-out: Proliferative inhibitory activity (IC50, nM) HEK293 (BCR-ABL-).
In data set [6] the target is T1, c-ABL protein. In words: Western blot degradation of c-ABL in K562 cells. Further details: Western blot was used to detect the expression of BCR-ABL and c-ABL protein in K562 cells; endogenous in cells; host or cells: K562. The data set is classed as cell-based. Particulars: 16 hours, 1 nM-10 μM. Put shortly:
(§3)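 Lysates were normalized by Bradford and run on SDS-PAGE with nitrocellulose transfer. DC50 was derived from band intensities by non-linear regression.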
In general terms: A western blot detects proteins with antibodies after separation by electrophoresis.

Data set [7] has as its target T2, BCR-ABL protein (Homo sapiens, UniProt P00519). The experiment in a line: Degradation of BCR-ABL protein in vivo. Further details: BCR (fusion partner, P11274); from tissue; host or cells: in vivo; the other entry of the earlier key: BCR (P11274, Breakpoint cluster region protein).
Description: as §2

In data set [8] the target is T2, BCR-ABL protein. In words: Western blot degradation of BCR-ABL in K562 cells. The data set is classed as cell-based. Further details: Western blot was used to detect the expression of BCR-ABL and c-ABL protein in K562 cells; BCR (fusion partner, P11274); endogenous in cells; host or cells: K562; the other entry of the earlier key: BCR (P11274, Breakpoint cluster region protein). The following applies: 16 hours, 1 nM-10 μM. Put shortly:
as §3

T2 sequence (P00519 with tags, fused parts or gaps): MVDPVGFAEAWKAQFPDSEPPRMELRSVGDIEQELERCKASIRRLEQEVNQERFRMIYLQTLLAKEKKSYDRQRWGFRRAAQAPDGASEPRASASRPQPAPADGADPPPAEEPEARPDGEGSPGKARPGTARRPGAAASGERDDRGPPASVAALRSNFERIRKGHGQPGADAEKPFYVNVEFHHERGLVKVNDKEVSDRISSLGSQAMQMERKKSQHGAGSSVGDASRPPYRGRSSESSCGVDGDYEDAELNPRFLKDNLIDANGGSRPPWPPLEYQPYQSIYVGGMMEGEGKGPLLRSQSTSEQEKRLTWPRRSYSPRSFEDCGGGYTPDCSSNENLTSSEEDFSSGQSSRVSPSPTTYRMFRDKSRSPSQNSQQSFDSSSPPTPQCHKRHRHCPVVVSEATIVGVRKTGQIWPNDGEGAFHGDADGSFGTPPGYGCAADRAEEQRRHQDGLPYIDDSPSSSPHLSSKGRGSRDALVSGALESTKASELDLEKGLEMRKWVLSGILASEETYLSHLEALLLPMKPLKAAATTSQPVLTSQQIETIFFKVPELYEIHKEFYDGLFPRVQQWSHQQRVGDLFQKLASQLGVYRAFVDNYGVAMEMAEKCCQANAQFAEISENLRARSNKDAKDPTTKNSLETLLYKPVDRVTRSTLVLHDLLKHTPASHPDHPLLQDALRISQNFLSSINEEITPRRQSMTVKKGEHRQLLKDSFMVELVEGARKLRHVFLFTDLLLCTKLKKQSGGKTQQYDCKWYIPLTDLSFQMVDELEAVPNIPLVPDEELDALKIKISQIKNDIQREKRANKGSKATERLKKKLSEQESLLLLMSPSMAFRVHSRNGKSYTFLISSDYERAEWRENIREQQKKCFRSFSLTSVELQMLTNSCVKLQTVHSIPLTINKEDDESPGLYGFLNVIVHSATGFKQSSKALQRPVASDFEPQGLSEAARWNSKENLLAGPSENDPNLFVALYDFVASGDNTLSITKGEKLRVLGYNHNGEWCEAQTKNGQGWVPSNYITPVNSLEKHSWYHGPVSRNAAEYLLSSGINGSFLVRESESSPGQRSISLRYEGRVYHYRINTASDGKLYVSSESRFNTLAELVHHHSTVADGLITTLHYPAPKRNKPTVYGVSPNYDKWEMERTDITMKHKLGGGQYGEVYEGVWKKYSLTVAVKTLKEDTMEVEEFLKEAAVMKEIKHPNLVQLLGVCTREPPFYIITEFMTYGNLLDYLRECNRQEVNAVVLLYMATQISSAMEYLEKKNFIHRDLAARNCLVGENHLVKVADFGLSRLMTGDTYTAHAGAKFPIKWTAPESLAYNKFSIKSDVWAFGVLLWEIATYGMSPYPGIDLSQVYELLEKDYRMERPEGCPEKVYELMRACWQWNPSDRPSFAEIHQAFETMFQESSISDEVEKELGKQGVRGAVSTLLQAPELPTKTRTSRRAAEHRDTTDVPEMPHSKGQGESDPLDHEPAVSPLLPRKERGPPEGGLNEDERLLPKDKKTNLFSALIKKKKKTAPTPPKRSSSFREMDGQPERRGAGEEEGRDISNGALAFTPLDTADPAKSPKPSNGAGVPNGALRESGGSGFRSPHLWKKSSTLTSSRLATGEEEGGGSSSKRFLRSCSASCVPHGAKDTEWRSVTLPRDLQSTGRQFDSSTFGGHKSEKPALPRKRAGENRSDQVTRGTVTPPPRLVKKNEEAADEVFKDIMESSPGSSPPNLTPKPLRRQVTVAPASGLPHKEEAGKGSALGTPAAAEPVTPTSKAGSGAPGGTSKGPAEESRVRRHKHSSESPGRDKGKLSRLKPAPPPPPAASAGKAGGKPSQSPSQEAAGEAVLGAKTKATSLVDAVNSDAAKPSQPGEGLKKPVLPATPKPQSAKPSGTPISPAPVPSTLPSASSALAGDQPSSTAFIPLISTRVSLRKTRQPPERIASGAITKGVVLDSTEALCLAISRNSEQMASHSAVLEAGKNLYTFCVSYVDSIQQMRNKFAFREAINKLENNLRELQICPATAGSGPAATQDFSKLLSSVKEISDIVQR
T1 sequence (P00519 whole entry): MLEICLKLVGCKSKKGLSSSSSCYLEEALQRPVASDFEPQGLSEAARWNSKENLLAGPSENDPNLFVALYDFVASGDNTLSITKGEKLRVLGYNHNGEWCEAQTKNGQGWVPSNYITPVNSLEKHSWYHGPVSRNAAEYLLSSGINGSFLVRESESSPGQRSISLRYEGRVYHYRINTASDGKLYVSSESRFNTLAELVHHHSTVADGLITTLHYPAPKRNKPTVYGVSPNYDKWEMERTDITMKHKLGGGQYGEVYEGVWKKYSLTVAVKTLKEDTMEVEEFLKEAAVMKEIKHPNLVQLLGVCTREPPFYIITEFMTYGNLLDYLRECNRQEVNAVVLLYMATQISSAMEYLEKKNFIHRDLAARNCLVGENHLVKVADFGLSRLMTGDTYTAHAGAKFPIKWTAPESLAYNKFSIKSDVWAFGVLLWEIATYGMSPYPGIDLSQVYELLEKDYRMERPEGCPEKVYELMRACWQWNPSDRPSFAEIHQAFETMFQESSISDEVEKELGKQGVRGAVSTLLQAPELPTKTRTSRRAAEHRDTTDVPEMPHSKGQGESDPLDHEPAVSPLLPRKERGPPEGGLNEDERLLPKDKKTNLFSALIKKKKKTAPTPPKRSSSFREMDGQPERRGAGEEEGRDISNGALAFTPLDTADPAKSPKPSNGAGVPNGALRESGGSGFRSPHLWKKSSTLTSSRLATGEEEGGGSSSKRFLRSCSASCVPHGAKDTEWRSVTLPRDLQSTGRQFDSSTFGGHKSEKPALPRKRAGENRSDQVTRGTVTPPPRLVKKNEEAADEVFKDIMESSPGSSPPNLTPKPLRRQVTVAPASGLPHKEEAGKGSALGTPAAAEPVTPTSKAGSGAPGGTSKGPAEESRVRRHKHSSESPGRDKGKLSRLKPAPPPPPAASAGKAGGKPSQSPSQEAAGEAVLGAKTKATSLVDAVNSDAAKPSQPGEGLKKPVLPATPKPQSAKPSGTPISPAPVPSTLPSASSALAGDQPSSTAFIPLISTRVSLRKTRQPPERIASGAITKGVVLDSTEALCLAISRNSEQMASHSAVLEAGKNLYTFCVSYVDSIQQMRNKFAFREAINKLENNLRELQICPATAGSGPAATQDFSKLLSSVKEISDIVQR

On to `Cc1nc(Nc2ncc(C(=O)Nc3c(C)cccc3Cl)s2)cc(N2CCN(C(=O)CCCCCCC(=O)N[C@H](C(=O)N3C[C@H](O)C[C@H]3C(=O)NCc3ccc(-c4scnc4C)cc3)C(C)(C)C)CC2)n1` [SIAIS151178, N-(2-chloro-6-methylphenyl)-2-((6-(4-(8-(((S)-1-((2S,4R)-4-hydroxy-2-((4-(4-methylthiazol-5-yl)benzyl)carbamoyl)pyrrolidin-1-yl)-3,3-dimethyl-1-oxobutan-2-yl)amino)-8-oxooctanoyl)piperazin-1-yl)-2-methylpyrimidin-4-yl)amino)thiazole-5-carboxamide], for which the IC50 in the data set with K562 (BCR-ABL+) cells is 41.3 nM; with U937 (BCR-ABL-) cells it was > 10000 nM; with HEK293 (BCR-ABL-) cells it was > 10000 nM. For the same compound, the “degradation of BCR-ABL mutants related to clinical drug resistance” value in data set [1] is given as “can significantly degrade the mutant forms of BCR-ABL-G250E/V299L/F317L/F317V in a dose-dependent manner”. For the same compound, the tumor decrease entry in data set [2] (NOD-SCID mice, 15 mg/kg) is recorded as “can cause tumor decrease”. Besides, in data set [2] (NOD-SCID mice, 5, 15, 45 mg/kg, 2 weeks), the “growth of K562 cell transplantation tumor” value was “can inhibit the growth of K562 cell transplantation tumor in a dose-dependent manner”. Further, the bodyweight of mice entry in data set [3] is listed as “no significant effect on the bodyweight of mice”. In addition, the “toxic and side effects” value in data set [3] is “no obvious toxic and side effects were found”. For the same compound, in the data set with BCR-ABL signal pathway, the “BCR-ABL signal pathway activity in vivo” value is “significantly inhibit the BCR-ABL signal pathway activity”. Besides, the “degradation of other tyrosine kinase receptors” value in [4] is given as “can also degrade other tyrosine kinase receptors, such as Src protein kinase, kit, PDGFR”. Moreover, the “degradation of c-ABL protein in vivo” value on c-ABL protein [5] was “can also degrade BCR-ABL and c-ABL protein in a dose-dependent manner in vivo”. Also, the 50% degradation concentration (DC50) was 10 to 100 nM at c-ABL protein [6] and 1 to 10 nM on BCR-ABL protein [8]. Also, the “degradation of BCR-ABL protein in vivo” value on BCR-ABL protein [7] was “can also degrade BCR-ABL and c-ABL protein in a dose-dependent manner in vivo”.

Regarding `Cc1nc(Nc2ncc(C(=O)Nc3c(C)cccc3Cl)s2)cc(N2CCN(C(=O)CCOCCOCCOCCOCCC(=O)N[C@H](C(=O)N3C[C@H](O)C[C@H]3C(=O)NCc3ccc(-c4scnc4C)cc3)C(C)(C)C)CC2)n1` [SIAIS151078, N-(2-chloro-6-methylphenyl)-2-((6-(4-((S)-18-((2S,4R)-4-hydroxy-2-((4-(4-methylthiazol-5-yl)benzyl)carbamoyl)pyrrolidine-1-carbonyl)-19,19-dimethyl-16-oxo-4,7,10,13-tetraoxa-17-azaicosanoyl)piperazin-1-yl)-2-methylpyrimidin-4-yl)amino)thiazole-5-carboxamide], the figures for the IC50 in the data set on K562 (BCR-ABL+) cells, with U937 (BCR-ABL-) cells and in the data set with HEK293 (BCR-ABL-) cells were 2160 nM, > 10000 nM and > 10000 nM, respectively. The results for the DC50 at c-ABL protein [6] and at BCR-ABL protein [8] were > 1000 nM and 100 to 1000 nM, respectively.

Take `COc1cc(Nc2c(C#N)cnc3cc(OCCCN4CCN(C(=O)CCOCCOCCOCCOCCNc5cccc6c5C(=O)N(C5CCC(=O)NC5=O)C6=O)CC4)c(OC)cc23)c(Cl)cc1Cl` (stereo not shown) [SIAIS151160, 4-((2,4-dichloro-5-methoxyphenyl)amino)-7-(3-(4-(1-((2-(2,6-dioxopiperidin-3-yl)-1,3-dioxoisoindolin-4-yl)amino)-3,6,9,12-tetraoxapentadecan-15-oyl)piperazin-1-yl)propoxy)-6-methoxyquinoline-3-carbonitrile]: the IC50 in the data set on K562 (BCR-ABL+) cells was 4650 nM; in the data set on U937 (BCR-ABL-) cells, > 10000 nM; in the data set with HEK293 (BCR-ABL-) cells, > 10000 nM. Moreover, the DC50 at c-ABL protein [6] and at BCR-ABL protein [8] was 10 to 100 nM in each case.

As for `COc1cc(Nc2c(C#N)cnc3cc(OCCCN4CCN(C(=O)CCCNc5cccc6c5C(=O)N(C5CCC(=O)NC5=O)C6=O)CC4)c(OC)cc23)c(Cl)cc1Cl` (stereo not shown) [SIAIS151162, 4-((2,4-dichloro-5-methoxyphenyl)amino)-7-(3-(4-(4-((2-(2,6-dioxopiperidin-3-yl)-1,3-dioxoisoindolin-4-yl)amino)butanoyl)piperazin-1-yl)propoxy)-6-methoxyquinoline-3-carbonitrile], the IC50 in the data set with K562 (BCR-ABL+) cells is 712 nM; in the data set with U937 (BCR-ABL-) cells, > 10000 nM; in the data set with HEK293 (BCR-ABL-) cells, > 10000 nM. Further, the DC50 on c-ABL protein [6] and at BCR-ABL protein [8] was 10 to 100 nM each time.

On to `Cc1nc(Nc2ncc(C(=O)Nc3c(C)cccc3Cl)s2)cc(N2CCN(C(=O)CCOCCOCCOCCNc3cccc4c3C(=O)N(C3CCC(=O)NC3=O)C4=O)CC2)n1` (stereo not shown) [SIAIS151067, N-(2-chloro-6-methylphenyl)-2-((6-(4-(3-(2-(2-(2-((2-(2,6-dioxopiperidin-3-yl)-1,3-dioxoisoindolin-4-yl)amino)ethoxy)ethoxy)ethoxy)propanoyl)piperazin-1-yl)-2-methylpyrimidin-4-yl)amino)thiazole-5-carboxamide], for which the IC50 in the data set on K562 (BCR-ABL+) cells is 14.8 nM; in the data set with U937 (BCR-ABL-) cells, > 10000 nM; with HEK293 (BCR-ABL-) cells, > 10000 nM. Also, the DC50 at c-ABL protein [6] is 10 to 100 nM; on BCR-ABL protein [8] it was 1 to 10 nM.
